Test results from US5846720A, “Methods of determining chemicals that modulate expression of genes associated with cardiovascular disease” (Oncogene Science, Inc., priority 1996, dated 1998).

Columns and labels:
G-CSF mRNA = test: S1 nuclease protection, G-CSF mRNA; format: cell-based, human; conditions: 5637 cells, 18 hours
Method: S1 Nuclease protection assays were carried out as described in reference 118.
To further confirm, that compounds that had been identified in a luciferase expression assay using a G-CSF specific reporter cell line would be active in inducing transcription of the endogenous G-CSF gene, cells from the parental cell line 5637 used to construct the reporter cell line were incubated with cycloheximide (25 ug/ml), DMSO (0.5%,solvent control) and low, medium and high concentrations of the compounds 542 (10, 50, 250 μM),1255 (20, 100, 500 uM), 1793(0.25, 1.2, 6.25 μM) and 1904 (20, 100 uM) for 18 hours. RNA was extracted and the concentration of G-CSF, GM-CSF and gamma-actin mRNA was determined by the S1 protection method as described in above. The positions of G-CSF GM-CSF and gamma-actin specific protected fragments are indicated (G, GM, A) at the left side of the gel (FIG. 37).

hGH promoter = test: hGH promoter/luciferase reporter assay (high-throughput screen I), 532 cells; format: cell-based, rat; conditions: Table 2, 6 h incubation; for hGH fold induction relative to solvent control: transcriptional activators; for hGH fold inhibition relative to solvent control: transcriptional inhibitors
Text: 6. a GC rat pituitary cell line, transfected with the growth hormone reporter plasmid, designated 532, deposited under ATCC Accession No. CRL 10663.

MMTV promoter = test: MMTV promoter/luciferase reporter assay (high-throughput screen I, control for specificity), M10 cells; format: cell-based, mouse; conditions: Table 2, 6 h incubation; for MMTV fold induction relative to solvent control: transcriptional activators, original high-throughput assay; for MMTV fold inhibition relative to solvent control: transcriptional inhibitors
Method: pMluci and pSV2Neo, an antibiotic resistance plasmid (84), were co-transfected into NIH/3T3 mouse fibroblast cells using the calcium phosphate precipitation method (85) with a commercially available kit (Pharmacia, Piscataway N.J.). Two days later, cells were transferred to media containing 0.4 mg/ml G418 and were grown for an additional 10-14 days. G418-resistant clones were isolated by standard methods. Once sufficient cell numbers were obtained, clones were analyzed based on several criteria: constitutive luciferase production, induction of luciferase expression by dexamethasone ([…], Sigma, St. Louis, Mo.), satisfactory attachment to microtiter plates used in the high-throughput screen (see section G) and acceptable standard deviation in multiple luciferase expression assays (see below for assay protocol). This analysis was carried out using the luciferase assay conditions described above. Of the clones which satisfied the above criteria for the high throughput screen, one clone, M10, was selected for use.

G-CSF promoter [1] = test: G-CSF promoter/luciferase reporter assay (high-throughput screen I), G21 cells; conditions: Table 2, 6 h incubation; for GCSF fold induction relative to solvent control: transcriptional activators; for GCSF fold inhibition relative to solvent control: transcriptional inhibitors
G-CSF promoter [2] = test: G-CSF promoter/luciferase induction by known inducers, clone G1002; format: cell-based, human; conditions: G1002, 0.5 ng/ml, 10.5 hours, serum-containing media
Method: U5637 bladder carcinoma cells were transfected with pGVU150 (FIG. 21) or pGVU140 plus pTKNeo3 either by electroporation using a BRL (Gaithersburg, Md.) Cellporator electroporation device or by lipofection using BRL lipofectin and following the manufacturer's protocol. Clones were analyzed for luciferase expression and those testing positive expanded further and frozen in liquid nitrogen. Further analysis of 6 clones (G1002, G2005, G2071, G2085, G3014, G3031) included Southern blotting, reaction to known inducers, satisfactory attachment to microtiter plates and acceptable standard deviation in multiple luciferase expression assays. Clone G1002 was selected for use in the high throughput screen.
Cell clones with correctly integrated promoter/reporter constructs were analyzed for correct reaction to known transcriptional inducers. […] Both TNF-alpha and PMA induction levels of clone G1002 were influenced by the presence or absence of epidermal growth factor (EGF). […] The 9.3 fold induction by PMA in the absence of EGF was reduced to 5.6 fold by including EGF in the serum-free incubation mixture. Similar differences were observed, when EGF was substituted by 10% fetal calf serum.

| Compound | amount of G-CSF mRNA (S1 nuclease protection) (G-CSF mRNA) | hGH fold induction relative to solvent control (hGH promoter) [fold] | MMTV fold induction relative to solvent control (MMTV promoter) [fold] | GCSF fold induction relative to solvent control (G-CSF promoter [1]) [fold] | hGH fold inhibition relative to solvent control (hGH promoter) [fold] | MMTV fold inhibition relative to solvent control (MMTV promoter) [fold] | GCSF fold inhibition relative to solvent control (G-CSF promoter [1]) [fold] | G-CSF promoter induction (G-CSF promoter [2]) [fold] |
| --- | --- | --- | --- | --- | --- | --- | --- | --- |
| Nc1c2ccccc2nc2ccccc12 [#1904] | increased mRNA production | – | – | – | – | – | – | – |
| CCOC(=O)c1c[nH]c(=S)[nH]c1=O [Chemical 1740] | – | 17.77 | 0.87 | 0.74 | – | – | – | – |
| N[C@@H](CCCCNC(=O)OCc1ccccc1)C(=O)O [Chemical 1747] | – | 6.16 | 0.86 | 0.78 | – | – | – | – |
| Cc1cc(=O)oc2cc(OCC(=O)O)ccc12 [Chemical 1764] | – | – | – | – | 7.14 | 0.82 | 0.55 | – |
| Cc1c(C(=O)O)c(O)cc2c1C(=O)c1c(O)c([C@@H]3O[C@H](CO)[C@@H](O)[C@H](O)[C@H]3O)c(O)c(O)c1C2=O [Chemical 1770] | – | – | – | – | 10.00 | 0.57 | 0.54 | – |
| NCCC(=O)N[C@@H](Cc1cnc[nH]1)C(=O)O [Chemical 1771] | – | – | – | – | 10.00 | 0.72 | 0.71 | – |
| Cc1cc(C2(c3cc(C)c(O)c(CN(CC(=O)O)CC(=O)O)c3)OC(=O)c3ccccc32)cc(CN(CC(=O)O)CC(=O)O)c1O [Chemical 1773] | – | – | – | – | 10.00 | 0.67 | 0.62 | – |
| N=c1cc2oc3cc(N)ccc3nc-2c2ccccc12 [Chemical 1776] | – | 0.15 | 1.36 | 3.50 | – | – | – | – |
| CN(C)C(=S)SCC#N [Chemical 1793] | – | 0.52 | 1.21 | 9.50 | – | – | – | – |
| O=C(O)C1CCC1 [Chemical 1804] | – | 9.41 | 0.49 | 1.05 | – | – | – | – |
| O=c1[nH]c(=O)c2nc3ccccc3nc2[nH]1 [Chemical 1890] | – | – | – | – | 5.26 | 0.58 | 0.80 | – |
| Nc1c2ccccc2nc2ccccc12 [Chemical 1904] | – | 0.54 | 0.82 | 4.12 | – | – | – | – |
| Brc1cccc(-c2ccccc2)c1 [Chemical 1994] | – | 0.34 | 0.63 | 3.29 | – | – | – | – |
| CC(C)(C)c1ccc(Br)cc1 [Chemical 2001] | – | 0.74 | 1.12 | 3.11 | – | – | – | – |
| Cc1n[nH]c(C)c1Br [Chemical 2009] | – | – | – | – | 0.57 | 0.64 | 3.70 | – |
| Nc1c(Br)cc([N+](=O)[O-])cc1[N+](=O)[O-] [Chemical 2010] | – | – | – | – | 0.63 | 3.57 | 0.80 | – |
| COc1c(F)cc(Br)cc1[N+](=O)[O-] [Chemical 2030] | – | 0.67 | 0.87 | 5.53 | – | – | – | – |
| O=C(O)c1ccc(Br)o1 [Chemical 2035] | – | – | – | – | 7.14 | 0.89 | 0.57 | – |

| Compound | amount of G-CSF mRNA (S1 nuclease protection) (G-CSF mRNA) | hGH fold induction relative to solvent control (hGH promoter) [fold] | MMTV fold induction relative to solvent control (MMTV promoter) [fold] | GCSF fold induction relative to solvent control (G-CSF promoter [1]) [fold] | hGH fold inhibition relative to solvent control (hGH promoter) [fold] | MMTV fold inhibition relative to solvent control (MMTV promoter) [fold] | GCSF fold inhibition relative to solvent control (G-CSF promoter [1]) [fold] | G-CSF promoter induction (G-CSF promoter [2]) [fold] |
| --- | --- | --- | --- | --- | --- | --- | --- | --- |
| Nc1nc2c(nc(Br)n2[C@@H]2O[C@H](CO)[C@@H](O)[C@H]2O)c(=O)[nH]1 [Chemical 2036] | – | – | – | – | 4.34 | 0.81 | 0.58 | – |
| CCCCCCCCCCCCCCCCBr [Chemical 2037] | – | – | – | – | 4.00 | 0.50 | 0.51 | – |
| COc1cc2oc(=O)cc(CBr)c2cc1OC [Chemical 2064] | – | 1.10 | 2.53 | 0.82 | – | – | – | – |
| Cc1n[nH]cc1Br [Chemical 2082] | – | – | – | – | 0.65 | 1.23 | 5.26 | – |
| CC(CCl)CBr (centres unmarked) [Chemical 2096] | – | 0.61 | 0.89 | 3.27 | – | – | – | – |
| ClCCCCCBr [Chemical 2097] | – | 0.88 | 1.22 | 5.09 | – | – | – | – |
| OCc1cccc(Cl)c1 [Chemical 2121] | – | – | – | – | 0.40 | 1.14 | 4.76 | – |
| ClCc1ccc(Cl)cc1 [Chemical 2129] | – | 0.75 | 0.95 | 3.23 | – | – | – | – |
| O=C1CCCCC1Cl (centres unmarked) [Chemical 2148] | – | 0.92 | 2.82 | 0.45 | – | – | – | – |
| O=C(N[C@H](CO)[C@H](O)c1ccc([N+](=O)[O-])cc1)C(Cl)Cl [Chemical 2191] | – | 0.35 | 7.32 | 0.37 | – | – | – | – |
| CC(=O)n1ccnc1 [Chemical #58, 1-Acetylimidazole] | – | 0.17 | 0.42 | 6.03 | – | – | – | – |
| Nc1nc(=O)n([C@H]2C[C@H](O)[C@@H](CO)O2)cc1Br [Chemical #542, 5-Bromo-2'-deoxycytidine] | – | 1.08 | 1.26 | 6.28 | – | – | – | – |
| O=c1[nH]c(=O)n([C@H]2C[C@H](O)[C@@H](CO)O2)cc1Br [Chemical #543, 5-Bromo-2'-deoxyuridine] | – | 0.72 | 0.98 | 7.17 | – | – | – | – |
| CC(=O)N(C)c1ccc(N)cc1 [Chemical #1374, 4'-Amino-N-methyl-acetanilide] | – | 0.05 | 1.05 | 11.03 | – | – | – | – |
| CN(C)c1ccc(C(=C2C=CC(=[N+](C)C)C=C2)c2ccc(N(C)C)cc2)cc1 [Chemical #1780, Crystal Violet] | – | 0.38 | 1.15 | 20.39 | – | – | – | – |
| O=NN(O)c1ccccc1 [Chemical #1783, Cupferron] | – | 0.32 | 0.89 | 6.55 | – | – | – | – |
| Interleukin-1 beta: Interleukin-1 beta, known transcriptional inducer | – | – | – | – | – | – | – | 2.6 |
